Patent publication US12540141B2, “Spiropyrrolidine derived antiviral agents” (priority 2020, dated 2026)
pIC50: −log10 of the molar value.

Molecular target: SARS-CoV-2 3CL-protease (Severe acute respiratory syndrome coronavirus 2, UniProt P0DTD1)
Assay: SARS-CoV-2 3C-Like (3CL) Protease Fluorescence Assay (FRET)
Format: biochemical
Settings: SARS-CoV-2 3CL-protease 10 nM, 30 min preincubation at RT, substrate 40 μM

CC(C)C[C@@H](C(=O)N1C[C@]2(C[C@H]1C#N)C(=O)Nc1ccccc12)N(C)C(=O)[C@@H]1CCN(C(=O)OC(C)(C)C)C1 [Example 345]
pIC50: > 7.00

CC(C)C[C@@H](C(=O)N1C[C@]2(C[C@H]1C#N)C(=O)Nc1ccccc12)N(C)C(=O)c1ccc2ccncc2c1 [Example 217]
pIC50: 6.00 to 7.00

CC(C)C[C@@H](C(=O)N1C[C@]2(C[C@H]1C#N)C(=O)Nc1ccccc12)N(C)C(=O)c1ccc(Cl)cc1 [Example 163]
pIC50: 6.00 to 7.00

CC(C)C[C@@H](C(=O)N1C[C@]2(C[C@H]1C#N)C(=O)Nc1ccccc12)N(C)C(=O)c1nnc(C2CC2)o1 [Example 354]
pIC50: > 7.00

CC(C)C[C@@H](C(=O)N1C[C@]2(C[C@H]1C#N)C(=O)Nc1ccc(NC(=O)C3(F)CC3)cc12)N(C)C(=O)c1cc2c(F)cc(F)cc2[nH]1 [Example 504, N—((S)-1-((3R,5′S)-5′-cyano-5-(1-fluorocyclopropane-1-carboxamido)-2-oxospiro[indoline-3,3′-pyrrolidin]-1′-yl)-4-methyl-1-oxopentan-2-yl)-4,6-difluoro-N-methyl-1H-indole-2-carboxamide]
pIC50: > 7.00

CN(C(=O)c1cc2c(F)cc(F)c(F)c2[nH]1)[C@@H](CC(C)(C)O)C(=O)N1C[C@]2(C[C@H]1C#N)C(=O)Nc1ccccc12 [Example 444]
pIC50: 6.00 to 7.00

COc1cc(C(=O)N(C)[C@@H](CC(C)C)C(=O)N2C[C@]3(C[C@H]2C#N)C(=O)Nc2ccccc23)cc2cn(C3CCC3)nc12 [Example 320]
pIC50: > 7.00

CC(C)(C)C[C@H](NC(=O)c1cc(Cl)c2ncccc2c1)C(=O)N1C[C@]2(C[C@H]1C#N)C(=O)Nc1ccccc12 [Example 138]
pIC50: > 7.00

CCCC[C@@H](C(=O)N1C[C@]2(C[C@H]1C#N)C(=O)Nc1ccccc12)N(C)C(=O)c1cc2c(F)cc(F)cc2[nH]1 [Example 384]
pIC50: > 7.00

COc1cc(F)c2cc(C(=O)N(C)[C@@H](CC(C)C)C(=O)N3C[C@]4(C[C@H]3C#N)C(=O)Nc3ccccc34)[nH]c2c1F [Example 292]
pIC50: > 7.00

CC(C)C[C@@H](C(=O)N1C[C@]2(C[C@H]1C#N)C(=O)Nc1ccccc12)N(C)C(=O)c1ccc(Cl)c(C(F)(F)F)c1 [Example 174]
pIC50: > 7.00

CN(C(=O)C(F)(F)c1ccncc1)[C@@H](CC(C)(C)F)C(=O)N1C[C@]2(C[C@H]1C#N)C(=O)Nc1ccc(Cl)cc12 [Example 480]
pIC50: > 7.00

CC(C)C[C@@H](C(=O)N1C[C@]2(C[C@H]1C#N)C(=O)Nc1ccccc12)N(C)C(=O)c1ccc(Cl)c(F)c1F [Example 175]
pIC50: > 7.00

CN(C(=O)CCN1CCCC1)[C@@H](CC(C)(C)F)C(=O)N1C[C@]2(C[C@H]1C#N)C(=O)Nc1ccccc12 [Example 541]
pIC50: > 7.00

Cc1ccc2cc(C(=O)N(C)[C@@H](CC(C)C)C(=O)N3C[C@]4(C[C@H]3C#N)C(=O)Nc3ccc(Cl)cc34)[nH]c2n1 [Example 469]
pIC50: > 7.00

CC(C)(F)C[C@H](NC(=O)c1cccc(OC(F)(F)F)c1)C(=O)N1C[C@]2(C[C@H]1C#N)C(=O)Nc1ccc(Cl)cc12 [Example 447]
pIC50: > 7.00

CC[C@@H](C(=O)N1C[C@]2(C[C@H]1C#N)C(=O)Nc1ccccc12)N(C)C(=O)c1cc2c(F)cc(F)cc2[nH]1 [Example 385]
pIC50: 6.00 to 7.00

COc1cc(C(=O)N(C)[C@@H](CC(C)C)C(=O)N2C[C@]3(C[C@H]2C#N)C(=O)Nc2ccccc23)nc2ccccc12 [Example 258]
pIC50: 6.00 to 7.00

CC(C)C[C@@H](C(=O)N1C[C@]2(C[C@H]1C#N)C(=O)Nc1ccccc12)N(C)C(=O)c1ccccc1Cl [Example 162]
pIC50: > 7.00

CC(C)C[C@@H](C(=O)N1C[C@]2(C[C@H]1C#N)C(=O)Nc1ccccc12)N(C)C(=O)CCNC(=O)OC(C)(C)C [Example 366]
pIC50: > 7.00

C[C@H](C(=O)N(C)[C@@H](CC(C)(C)C)C(=O)N1C[C@]2(C[C@H]1C#N)C(=O)Nc1ccccc12)c1cnn(C)c1 [Example 373]
pIC50: > 7.00

CC(C)C[C@@H](C(=O)N1C[C@]2(C[C@H]1C#N)C(=O)Nc1ccccc12)N(C)C(=O)c1cc(OC2CC2)c2ncccc2c1 [Example 312]
pIC50: > 7.00

CN(C(=O)c1cnc(C(F)(F)F)[nH]1)[C@@H](CC1CC1)C(=O)N1C[C@]2(C[C@H]1C#N)C(=O)Nc1ccccc12 [Example 407]
pIC50: > 7.00

CC(C)C[C@@H](C(=O)N1C[C@]2(C[C@H]1C#N)C(=O)Nc1ccccc12)N(C)C(=O)c1ccc(OC(F)(F)F)c(F)c1 [Example 179]
pIC50: > 7.00

Cc1ccc2cc(C(=O)N(C)[C@@H](CC(C)C)C(=O)N3C[C@]4(C[C@H]3C#N)C(=O)Nc3ccccc34)cc(OC3CC3)c2n1 [Example 321]
pIC50: > 7.00

[2H]C([2H])([2H])N(C(=O)c1cc2c(F)cc(F)cc2[nH]1)[C@@H](CC(C)(C)F)C(=O)N1C[C@]2(C[C@H]1C#N)C(=O)Nc1cc(C(F)(F)F)ccc12 [Example 472, N—((S)-1-((3R,5′S)-5′-cyano-2-oxo-6-(trifluoromethyl)spiro[indoline-3,3′-pyrrolidin]-1′-yl)-4-fluoro-4-methyl-1-oxopentan-2-yl)-4,6-difluoro-N-(methyl-d3)-1H-indole-2-carboxamide]
pIC50: > 7.00

[2H]C([2H])([2H])N(C(=O)c1cn(C2CC2)nn1)[C@@H](Cc1ccc(F)cc1)C(=O)N1C[C@]2(C[C@H]1C#N)C(=O)Nc1ccccc12 [Example 391]
pIC50: > 7.00

CC(C)C[C@@H](C(=O)N1C[C@]2(C[C@H]1C#N)C(=O)Nc1ccccc12)N(C)C(=O)N1CC[C@H](O)C1 [Example 335]
pIC50: 6.00 to 7.00

Cc1ccc2cc(C(=O)N(C)[C@@H](CC(C)(C)F)C(=O)N3C[C@]4(C[C@H]3C#N)C(=O)Nc3ccccc34)[nH]c2n1 [Example 467]
pIC50: > 7.00

[2H]C([2H])([2H])N(C(=O)c1cnn(CC(F)(F)F)c1)[C@@H](CC1CC1)C(=O)N1C[C@]2(C[C@H]1C#N)C(=O)Nc1ccccc12 [Example 395]
pIC50: > 7.00

CN(C(=O)c1nc2cccnc2[nH]1)[C@@H](CC1CC1)C(=O)N1C[C@]2(C[C@H]1C#N)C(=O)Nc1ccc(Cl)cc12 [Example 463]
pIC50: > 7.00

CC(C)C[C@@H](C(=O)N1C[C@]2(C[C@H]1C#N)C(=O)Nc1ccccc12)N(C)C(=O)c1cnccn1 [Example 200]
pIC50: > 7.00

[2H]C([2H])([2H])N(C(=O)c1cn(-c2ccc(Cl)cc2)nn1)[C@@H](CC(C)(C)C)C(=O)N1C[C@]2(C[C@H]1C#N)C(=O)Nc1ccccc12 [Example 377]
pIC50: > 7.00

CN(C(=O)C(F)(F)c1cccnc1)[C@@H](CC(C)(C)F)C(=O)N1C[C@]2(C[C@H]1C#N)C(=O)Nc1ccc(Cl)cc12 [Example 482]
pIC50: > 7.00

CN(C(=O)c1cc2c(F)cc(F)c(F)c2[nH]1)[C@@H](CC(C)(C)F)C(=O)N1C[C@]2(C[C@H]1C#N)C(=O)Nc1ncccc12 [Example 551]
pIC50: > 7.00

CN(C(=O)c1cc2c(OC3CC3)cccc2[nH]1)[C@@H](CC(C)(C)C)C(=O)N1C[C@]2(C[C@H]1C#N)C(=O)Nc1ccccc12 [Example 375]
pIC50: > 7.00

CN(C(=O)[C@H](O)Cc1ccc(F)cc1)[C@@H](CC1CC1)C(=O)N1C[C@]2(C[C@H]1C#N)C(=O)Nc1ccccc12 [Example 423]
pIC50: > 7.00

CC(C)C[C@@H](C(=O)N1C[C@]2(C[C@H]1C#N)C(=O)Nc1ccc(-c3ccc(F)cc3)cc12)N(C)C(=O)c1cc2c(F)cc(F)cc2[nH]1 [Example 511]
pIC50: > 7.00

CC(C)C[C@@H](C(=O)N1C[C@]2(C[C@H]1C#N)C(=O)Nc1ccccc12)N(C)C(=O)c1nc2ccccc2s1 [Example 206]
pIC50: 6.00 to 7.00

CC(C)C[C@@H](C(=O)N1C[C@]2(C[C@H]1C#N)C(=O)Nc1ccccc12)N(C)C(=O)c1ccc2c(c1)OC(F)(F)O2 [Example 190]
pIC50: 6.00 to 7.00

[2H]C([2H])([2H])N(C(=O)[C@H](O)c1ccccc1)[C@@H](CC(C)(C)C)C(=O)N1C[C@]2(C[C@H]1C#N)C(=O)Nc1ccccc12 [Example 428]
pIC50: > 7.00

N#C[C@@H]1C[C@@]2(CN1C(=O)[C@H](Cc1ccccc1F)NC(=O)c1cc3c(F)cc(F)cc3[nH]1)C(=O)Nc1ccc(Cl)cc12 [Example 451]
pIC50: > 7.00

Cc1cc2cc(C(=O)N(C)[C@@H](CC(C)C)C(=O)N3C[C@]4(C[C@H]3C#N)C(=O)Nc3ccccc34)cc(OC3CC3)c2nc1C [Example 323]
pIC50: > 7.00

CC(C)(F)C[C@H](NC(=O)c1cc2ccccn2n1)C(=O)N1C[C@]2(C[C@H]1C#N)C(=O)Nc1ccc(Cl)cc12 [Example 446]
pIC50: 6.00 to 7.00

[2H]C([2H])([2H])N(C(=O)[C@@H](O)c1ccccc1)[C@@H](CC(C)(C)C)C(=O)N1C[C@]2(C[C@H]1C#N)C(=O)Nc1ccccc12 [Example 427]
pIC50: > 7.00

CN(C(=O)c1cn(C(C)(C)C)nn1)[C@@H](Cc1ccccc1)C(=O)N1C[C@]2(C[C@H]1C#N)C(=O)Nc1ccccc12 [Example 363]
pIC50: > 7.00

COc1ccnc(C(=O)N(C)[C@@H](CC(C)C)C(=O)N2C[C@]3(C[C@H]2C#N)C(=O)Nc2ccccc23)c1 [Example 192]
pIC50: 6.00 to 7.00

CC(C)C[C@@H](C(=O)N1C[C@]2(C[C@H]1C#N)C(=O)Nc1ccccc12)N(C)C(=O)c1cc2ccccn2n1 [Example 247]
pIC50: 6.00 to 7.00

CC(C)C[C@@H](C(=O)N1C[C@]2(C[C@H]1C#N)C(=O)Nc1ccccc12)N(C)C(=O)c1ccc2nc(-c3ccccc3)ccc2c1 [Example 257]
pIC50: 6.00 to 7.00

CC(C)(C)C[C@H](NC(=O)c1cc2c(F)cc(F)cc2[nH]1)C(=O)N1C[C@]2(C[C@H]1C#N)C(=O)Nc1ccc(Cl)cc12 [Example 448]
pIC50: > 7.00

CC(C)C[C@@H](C(=O)N1C[C@]2(C[C@H]1C#N)C(=O)Nc1ccccc12)N(C)C(=O)c1ccc2ccccc2n1 [Example 211]
pIC50: 6.00 to 7.00

CC(C)C[C@@H](C(=O)N1C[C@]2(C[C@H]1C#N)C(=O)Nc1ccccc12)N(C)C(=O)c1cc2c(Cl)c(Cl)ccc2[nH]1 [Example 328]
pIC50: > 7.00

CC(C)C[C@@H](C(=O)N1C[C@]2(C[C@H]1C#N)C(=O)Nc1ccccc12)N(C)C(=O)c1cccc(-c2cccc(C#N)c2)c1 [Example 279]
pIC50: 6.00 to 7.00

CC(C)C[C@@H](C(=O)N1C[C@]2(C[C@H]1C#N)C(=O)Nc1ccccc12)N(C)C(=O)c1ccc2ncccc2c1F [Example 330]
pIC50: > 7.00

CN(C(=O)CCN1CCOCC1)[C@@H](CC(C)(C)F)C(=O)N1C[C@]2(C[C@H]1C#N)C(=O)Nc1ccccc12 [Example 537]
pIC50: > 7.00
